Assay results as given in ChEMBL document CHEMBL3297692, “Discovery of naphthyl-fused 5-membered lactams as a new class of m1 positive allosteric modulators” (ACS Med Chem Lett, 2014).
Converted amounts (≈) assume the structure as drawn. One block for each molecule: values may come before it. The source made the active and inactive calls. The calls are words filed in the database; no cut-off is given here.

Legend:
[1] = target: T1, Muscarinic acetylcholine receptor M1 (Homo sapiens) (UniProt P11229); assay: Positive allosteric modulation of human mAChR1 expressed in CHONFAT cells assessed as potention of acetylcholine-induced effect incubated for 4 mins prior to acetylcholine addition measured after 4 mins by FLIPR assay; type: cell-based
T1 sequence (whole entry): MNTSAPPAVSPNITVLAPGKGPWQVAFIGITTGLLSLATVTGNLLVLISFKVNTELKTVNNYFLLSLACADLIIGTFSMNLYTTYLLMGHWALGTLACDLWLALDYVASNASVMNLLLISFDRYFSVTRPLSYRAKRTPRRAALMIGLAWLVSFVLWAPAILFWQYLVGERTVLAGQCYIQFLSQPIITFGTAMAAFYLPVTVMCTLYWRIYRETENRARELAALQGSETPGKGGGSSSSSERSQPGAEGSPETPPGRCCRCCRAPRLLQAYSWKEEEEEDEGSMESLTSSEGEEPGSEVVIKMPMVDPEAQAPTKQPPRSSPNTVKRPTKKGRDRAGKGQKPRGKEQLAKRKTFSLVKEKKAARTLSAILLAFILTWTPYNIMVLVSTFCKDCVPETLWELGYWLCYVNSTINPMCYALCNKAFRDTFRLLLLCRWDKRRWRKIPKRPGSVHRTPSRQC

[2] = Plasma protein binding in rat by equilibrium dialysis method; type: ADME, cell-free; conditions: read-out: PPB (converted)
[3] = Plasma protein binding in human by equilibrium dialysis method; type: ADME, cell-free; conditions: read-out: PPB (converted)
[4] = Apparent passive permeability of the compound; type: physicochemical; conditions: not told
[5] = target: MDR1 (ABCB1, P-glycoprotein) (Homo sapiens, UniProt P08183); assay: Effect on human MDR1-mediated drug transport assessed as efflux ratio of permeability from basolateral to apical side over apical to basolateral side; type: ADME; conditions: not told
[6] = test system: MDR1a; assay: Effect on rat MDR1a-mediated drug transport assessed as efflux ratio of permeability from basolateral to apical side over apical to basolateral side; type: ADME; conditions: not told
[7] = test system: Plasma; assay: Plasma concentration in Sprague-Dawley rat at 10 mg/kg, po; type: ADME, organism-based; set-up: dose 10 mg/kg, route oral; conditions: in vivo
[8] = test system: Cerebrospinal fluid; assay: Drug uptake in cerebrospinal fluid in Sprague-Dawley rat at 10 mg/kg, po; type: ADME, organism-based; set-up: dose 10 mg/kg, route oral; conditions: in vivo, read-out: Drug uptake
[9] = test system: Nucleic Acid; assay: Ratio of drug uptake in Sprague-Dawley rat cerebrospinal fluid to unbound plasma level in rat; type: ADME
[10] = Solubility of the compound at pH 2; type: physicochemical; conditions: buffer
[11] = Solubility of the compound at pH 7; type: physicochemical; conditions: buffer
[12] = Lipophilicity, log D of the compound by HPLC analysis; type: physicochemical
[13] = target: T1, Muscarinic acetylcholine receptor M1 (Homo sapiens); assay: Potentiation of human mAChR1 expressed in CHONFAT cells assessed as fold shift in acetylcholine response curve at 1.8 uM incubated for 4 mins prior to acetylcholine addition measured after 4 mins relative to control; type: cell-based
[14] = target: T1, Muscarinic acetylcholine receptor M1 (Homo sapiens); assay: Potentiation of human mAChR1 expressed in CHONFAT cells assessed as fold shift acetylcholine response curve incubated for 4 mins prior to acetylcholine addition measured after 4 mins relative to control; type: cell-based
[15] = test system: Mus musculus; assay: Reversal of scopolamine-induced memory deficit in B6SJL mouse contextual fear conditioning model at 1 mg/kg, ip after 30 mins relative to vehicle-treated control; type: functional, organism-based; set-up: dose 1 mg/kg
[16] = test system: Plasma; assay: Plasma concentration in B6SJL mouse contextual fear conditioning model at 1 mg/kg, ip; type: ADME, organism-based; set-up: dose 1 mg/kg, route intraperitoneal; conditions: in vivo
[17] = Clearance in rat at 2 mg/kg, iv; type: ADME, organism-based; set-up: dose 2 mg/kg, route intravenous; conditions: in vivo
[18] = Volume of distribution at steady state in rat at 2 mg/kg, iv; type: ADME, organism-based; set-up: dose 2 mg/kg, route intravenous; conditions: in vivo, read-out: Vdss
[19] = Half life in rat at 2 mg/kg, iv; type: ADME, organism-based; set-up: dose 2 mg/kg, route intravenous; conditions: in vivo
[20] = Clearance in dog at 0.125 mg/kg, iv; type: ADME, organism-based, Canis lupus familiaris; set-up: dose 0.125 mg/kg, route intravenous; conditions: in vivo
[21] = Volume of distribution at steady state in dog at 0.125 mg/kg, iv; type: ADME, organism-based, Canis lupus familiaris; set-up: dose 0.125 mg/kg, route intravenous; conditions: in vivo, read-out: Vdss
[22] = Half life in dog at 0.125 mg/kg, iv; type: ADME, organism-based, Canis lupus familiaris; set-up: dose 0.125 mg/kg, route intravenous; conditions: in vivo
[23] = Fraction unbound in rat plasma by equilibrium dialysis method; type: ADME, cell-free
[24] = Fraction unbound in human plasma by equilibrium dialysis method; type: ADME, cell-free
[25] = test system: Mus musculus; assay: Reversal of scopolamine-induced memory deficit in ip dosed B6SJL mouse contextual fear conditioning model at 1 uM plasma level after 30 mins relative to vehicle-treated control; type: functional, organism-based

Chain of MDR1 (ABCB1, P-glycoprotein) (P08183 whole entry): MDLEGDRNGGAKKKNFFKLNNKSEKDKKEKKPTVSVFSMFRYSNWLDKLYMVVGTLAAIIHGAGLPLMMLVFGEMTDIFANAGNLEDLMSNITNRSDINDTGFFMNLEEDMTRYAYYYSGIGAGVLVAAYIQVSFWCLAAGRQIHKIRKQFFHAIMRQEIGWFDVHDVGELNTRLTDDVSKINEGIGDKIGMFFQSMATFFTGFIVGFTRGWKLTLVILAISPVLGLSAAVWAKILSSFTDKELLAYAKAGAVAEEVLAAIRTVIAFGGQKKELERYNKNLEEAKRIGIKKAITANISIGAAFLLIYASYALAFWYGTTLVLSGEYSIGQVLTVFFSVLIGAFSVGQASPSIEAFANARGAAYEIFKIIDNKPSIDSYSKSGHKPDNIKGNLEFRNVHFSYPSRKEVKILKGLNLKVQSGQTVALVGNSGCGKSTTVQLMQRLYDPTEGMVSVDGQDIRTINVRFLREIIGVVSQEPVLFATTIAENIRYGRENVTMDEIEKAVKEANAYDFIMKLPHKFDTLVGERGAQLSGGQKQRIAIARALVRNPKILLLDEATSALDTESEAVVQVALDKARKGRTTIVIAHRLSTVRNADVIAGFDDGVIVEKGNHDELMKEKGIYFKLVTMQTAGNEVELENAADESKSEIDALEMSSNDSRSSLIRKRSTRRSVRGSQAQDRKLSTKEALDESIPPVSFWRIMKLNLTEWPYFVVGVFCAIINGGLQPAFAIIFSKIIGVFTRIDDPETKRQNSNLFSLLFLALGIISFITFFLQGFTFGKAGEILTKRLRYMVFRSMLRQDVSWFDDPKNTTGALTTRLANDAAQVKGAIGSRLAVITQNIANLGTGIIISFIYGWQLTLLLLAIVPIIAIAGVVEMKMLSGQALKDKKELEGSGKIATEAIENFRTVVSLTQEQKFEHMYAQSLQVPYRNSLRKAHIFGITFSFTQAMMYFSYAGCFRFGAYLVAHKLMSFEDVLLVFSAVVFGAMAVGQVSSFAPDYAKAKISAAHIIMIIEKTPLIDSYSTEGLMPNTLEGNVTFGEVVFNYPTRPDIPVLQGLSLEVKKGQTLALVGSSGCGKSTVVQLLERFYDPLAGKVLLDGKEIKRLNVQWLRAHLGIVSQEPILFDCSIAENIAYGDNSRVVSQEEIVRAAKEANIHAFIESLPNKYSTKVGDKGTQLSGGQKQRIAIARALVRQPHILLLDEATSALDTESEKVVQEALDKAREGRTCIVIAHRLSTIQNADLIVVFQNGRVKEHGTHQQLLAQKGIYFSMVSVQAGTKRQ

IP [1]: 58 nM | fraction unbound [2]: 0.015 | fraction unbound [3]: 0.03 | Papp [4]: 34 ×10⁻⁶ cm/s | efflux ratio [5]: 2.1 | efflux ratio [6]: 2.7
SMILES: O=C1c2cc(CN3CCC(F)(c4ccccn4)CC3)c3ccccc3c2CN1[C@H]1CCCC[C@@H]1O

IP [1]: 290 nM
SMILES: N#CC1(c2ccccn2)CCN(Cc2cc3c(c4ccccc24)CN(c2ccccc2F)C3=O)CC1

SMILES: CC1c2c(cc(CN3CCC(C#N)(c4ccccn4)CC3)c3ccccc23)C(=O)N1[C@H]1CCCC[C@@H]1O (mixture of isomers)
IP [1]: 19 nM | fraction unbound [2]: 0.014 | fraction unbound [3]: 0.06 | Papp [4]: 29 ×10⁻⁶ cm/s | efflux ratio [5]: 1.7 | efflux ratio [6]: 4.1 | concentration [7]: 1120 nM | concentration [8]: 4.7 nM | Ratio [9]: 0.3 | solubility [10]: 198 µM | solubility [11]: 19 µM | logD [12]: 3.4

SMILES: N#CC1(c2cccnn2)CCN(Cc2cc3c(c4ccccc24)CN([C@H]2CCCC[C@@H]2O)C3=O)CC1
IP [1]: 27 nM | fraction unbound [2]: 0.146 | fraction unbound [3]: 0.144 | Papp [4]: 27 ×10⁻⁶ cm/s

SMILES: N#CC1(c2ccccn2)CCN(Cc2cc3c(c4ccccc24)CN([C@@H]2CCCC[C@H]2O)C3=O)CC1
IP [1]: 540 nM

SMILES: N#CC1(c2cnccn2)CCN(Cc2cc3c(c4ccccc24)CN([C@H]2CCCC[C@@H]2O)C3=O)CC1
IP [1]: 31 nM | fraction unbound [2]: 0.142 | fraction unbound [3]: 0.086 | Papp [4]: 31 ×10⁻⁶ cm/s | efflux ratio [5]: 8 | efflux ratio [6]: 11

SMILES: N#CC1(c2ccncn2)CCN(Cc2cc3c(c4ccccc24)CN([C@H]2CCCC[C@@H]2O)C3=O)CC1
IP [1]: 17 nM | fraction unbound [2]: 0.07 | fraction unbound [3]: 0.09 | Papp [4]: 29 ×10⁻⁶ cm/s | efflux ratio [5]: 6 | efflux ratio [6]: 20

SMILES: Cc1ccnc(C2(C#N)CCN(Cc3cc4c(c5ccccc35)CN([C@H]3CCCC[C@@H]3O)C4=O)CC2)c1
IP [1]: 16 nM | fraction unbound [2]: 0.007 | fraction unbound [3]: 0.006 | Papp [4]: 22 ×10⁻⁶ cm/s | efflux ratio [5]: 1.3 | efflux ratio [6]: 4.5 | concentration [7]: 2340 nM | concentration [8]: 8.6 nM | Ratio [9]: 0.52 | solubility [10]: 179 µM (≈ 88.5 µg/mL) | solubility [11]: 3 µM (≈ 1.48 µg/mL) | logD [12]: 3.3

SMILES: N#CC1(c2ccccn2)CCN(Cc2cc3c(c4ccccc24)CN([C@H]2CCCC[C@@H]2O)C3=O)CC1
IP [1]: 15 nM | fraction unbound [2]: 0.05 | fraction unbound [3]: 0.08 | Papp [4]: 34 ×10⁻⁶ cm/s | efflux ratio [5]: 3.2 | efflux ratio [6]: 4.3 | concentration [7]: 5180 nM | concentration [8]: 134 nM | Ratio [9]: 0.51 | solubility [10]: 195 µM (≈ 93.7 µg/mL) | solubility [11]: 11 µM (≈ 5.29 µg/mL) | logD [12]: 2.9 | fold change (FC) [13]: 40 | Activity [14]: Dose-dependent effect | Activity [15]: Active | concentration [16]: 1500 nM | clearance [17]: 4.1 mL/min/kg | Vd [18]: 2.8 L/kg | half-life [19]: 12 h | clearance [20]: 2.1 mL/min/kg | Vd [21]: 1.2 L/kg | half-life [22]: 6.7 h | fraction unbound [23]: 0.05 | fraction unbound [24]: 0.08

SMILES: N#CC1(c2ccccn2)CCN(Cc2cc(C(=O)O)c(=O)n3ccccc23)CC1
Activity [25]: Active

SMILES: N#CC1(c2cccnc2)CCN(Cc2cc3c(c4ccccc24)CN([C@H]2CCCC[C@@H]2O)C3=O)CC1
IP [1]: 22 nM | Papp [4]: 32 ×10⁻⁶ cm/s

SMILES: Cc1cccc(C2(C#N)CCN(Cc3cc4c(c5ccccc35)CN([C@H]3CCCC[C@@H]3O)C4=O)CC2)n1
IP [1]: 27 nM | fraction unbound [2]: 0.01 | fraction unbound [3]: 0.01 | Papp [4]: 28 ×10⁻⁶ cm/s | efflux ratio [5]: 1.5 | efflux ratio [6]: 3.1

SMILES: N#CC1(c2ccncc2)CCN(Cc2cc3c(c4ccccc24)CN([C@H]2CCCC[C@@H]2O)C3=O)CC1
IP [1]: 22 nM | Papp [4]: 30 ×10⁻⁶ cm/s | efflux ratio [5]: 26 | efflux ratio [6]: 49

IP [1]: 1500 nM
SMILES: N#CC1(c2ccccn2)CCN(Cc2cc3c(c4ccccc24)CN(C2CCCOC2)C3=O)CC1 (centres undefined)

SMILES: N#CC1(c2ccccc2)CCN(Cc2cc3c(c4ccccc24)CN([C@H]2CCCC[C@@H]2O)C3=O)CC1
IP [1]: 83 nM | fraction unbound [2]: 0.006 | fraction unbound [3]: 0.011 | Papp [4]: 23 ×10⁻⁶ cm/s | efflux ratio [5]: 1.7 | efflux ratio [6]: 3.4

SMILES: N#CC1(c2ccccn2)CCN(Cc2cc3c(c4ccccc24)CN([C@H]2CCCC[C@H]2O)C3=O)CC1
IP [1]: 150 nM

IP [1]: 280 nM
SMILES: N#CC1(c2ccccn2)CCN(Cc2cc3c(c4ccccc24)CN(C2CCOCC2)C3=O)CC1
